{"source": "patent EP0120359A1", "about": "“Tetrahydrothiophenone derivative active in respiratory system affections” (YASON S.r.l, priority 1983, dated 1984)", "key": {"Sprague-Dawley rats": {"tested_on": "Sprague-Dawley rats", "assay": "Bronchosecretogogue activity, Mawatari test", "assay_type": "in vivo", "settings": "rat", "from_the_text": "The bronchosecretogogue activity of YS-869 was evalued by the test of Mawatari in Sprague-Dawley rats (Mawatari H. \"Experimental Studies on the expectorant action of several drugs\" - Kagoshima Daiga ken Igaken Zasshi. 27, 561, 1976), in comparison with known drugs.\nThis method consists in determinating the amount of […] eliminated with the fluid in the respiratory tract."}, "rat paw": {"tested_on": "rat paw", "assay": "Antiinflammatory activity, carrageenin oedema in rat paw", "assay_type": "in vivo", "settings": "for Paw volume 2 h / Paw volume 4 h / Paw volume 6 h / Paw volume 8 h / Paw volume 24 h / Paw volume Basal: mean ± S.E.; for AREA % M±E.S.: area of the paw volume curve; for AREA Inhibition versus control: oedema inhibiting activity", "protocol": "The antiinflammatory activity of YS-869 in comparison with acetylsalicylic acid was evaluated by the test of oedema induced by carrageening injection in rat paw (Winter, Rissly, Ness.; Proc. Soc. Exp. Biol. Med., Ill, 544-47 - 1962)."}, "rats": {"tested_on": "rats", "assay_type": "in vivo", "settings": "200 mg/kg p.o.", "protocol": "The gastro-injuring activity was determined by administering rats with equimolecular dosages of YS-869 and acetylsalicylic acid (252 mg/kg and 200 mg/kg respectively)."}, "rabbit": {"tested_on": "rabbit", "assay": "Antitussive activity, citric acid induced cough", "assay_type": "in vivo", "from_the_text": "The antitussive activity of YS-869 was evalued by the citric acid test in the rabbit (Boura et al., Prog. Brit. Pharmac. Soc. Communications, April 1970), in comparison with codeine.\nSuch method consists in counting the coughs stro kes caused in the animal by the nebulization of a citric acid solution."}, "[1]": {"assay": "Solubility in organic solvents", "settings": "common organic solvents"}}, "note": "Where two headings read alike, the source gives them in different places.", "data": [{"compound": "Nc1c(Br)cc(Br)cc1CN[C@H]1CC[C@H](O)CC1", "note": "[AMBROXOL, Ambroxol]", "values": [{"measurement": "Fl Na", "setting": "Sprague-Dawley rats; 50 mg/kg i.p.", "result": "0.36 ± 0.037", "unit": "µg/mL"}, {"measurement": "Fl Na % increase versus contr.", "setting": "Sprague-Dawley rats; 50 mg/kg i.p.", "result": 28.6, "unit": "%"}]}, {"compound": "CC(=O)Oc1ccccc1C(=O)O", "note": "[Acetyl-salicy-lic acid, acetylsalicylic acid]", "values": [{"measurement": "Paw volume 2 h", "setting": "rat paw; 200 mg/kg p.o.", "result": "43.5 ±1.5", "unit": "ml/10"}, {"measurement": "Paw volume 4 h", "setting": "rat paw; 200 mg/kg p.o.", "result": "49.3 ±2.0", "unit": "ml/10"}, {"measurement": "Paw volume 6 h", "setting": "rat paw; 200 mg/kg p.o.", "result": "51.4 ±1.7", "unit": "ml/10"}, {"measurement": "Paw volume 8 h", "setting": "rat paw; 200 mg/kg p.o.", "result": "51.5 ±2.0", "unit": "ml/10"}, {"measurement": "Paw volume 24 h", "setting": "rat paw; 200 mg/kg p.o.", "result": "42.8 ±1.7", "unit": "ml/10"}, {"measurement": "AREA % M±E.S.", "setting": "rat paw; 200 mg/kg p.o.", "result": "151.38 ±13.1", "unit": "%"}, {"measurement": "Paw volume Basal", "setting": "rat paw; 200 mg/kg p.o.", "result": "36.1 ±1.1", "unit": "ml/10"}, {"measurement": "AREA Inhibition versus control", "setting": "rat paw; 200 mg/kg p.o.", "result": 26.94, "unit": "%"}, {"measurement": "ULCERS (gastric ulcers average size)", "setting": "rats", "result": "27.7±6.37", "unit": "mm"}, {"measurement": "ULCERS (gastric ulcers average size)", "setting": "rats; listed as acetylsalicylic acid", "result": 27.7, "unit": "mm"}]}, {"compound": "COc1ccc2c3c1O[C@H]1[C@@H](O)C=C[C@H]4[C@@H](C2)N(C)CC[C@@]341", "note": "[CODEINE, codeine]", "values": [{"measurement": "% inhibition versus control", "setting": "rabbit; 25 mg/kg i.p.", "result": 70.4, "unit": "%"}]}, {"compound": "N[C@@H](CSCC(=O)O)C(=O)O", "note": "[S-CARBOXY-METHYL-CY-STEINE, S-carboxymethyl-cysteine]", "values": [{"measurement": "Fl Na", "setting": "Sprague-Dawley rats; 500 mg/kg i.p.", "result": "0.41 ± 0.036", "unit": "µg/mL"}, {"measurement": "Fl Na % increase versus contr.", "setting": "Sprague-Dawley rats; 500 mg/kg i.p.", "result": 46.4, "unit": "%"}]}, {"compound": "O=C(NC1CCSC1=O)c1cccs1", "note": "(stereo not drawn) [YS-869, N-(2-thenoyl)-N-(2-keto-2,3,4,5-tetrahydro-thiophene-3-yl)amine]", "values": [{"measurement": "% inhibition versus control", "setting": "rabbit; 100 mg/kg i.p.", "result": 21.5, "unit": "%"}, {"measurement": "Fl Na", "setting": "Sprague-Dawley rats; 500 mg/kg i.p.", "result": "0.42 ± 0.0450", "unit": "µg/mL"}, {"measurement": "Fl Na % increase versus contr.", "setting": "Sprague-Dawley rats; 500 mg/kg i.p., 500 mg/kg", "result": 50, "unit": "%"}, {"measurement": "solubility", "setting": "[1]", "result": "soluble in common organic solvents"}, {"measurement": "Paw volume 2 h", "setting": "rat paw; 252 mg/kg p.o.", "result": "48.2 ±1.2", "unit": "ml/10"}, {"measurement": "Paw volume 4 h", "setting": "rat paw; 252 mg/kg p.o.", "result": "54.1 ±2.3", "unit": "ml/10"}, {"measurement": "Paw volume 6 h", "setting": "rat paw; 252 mg/kg p.o.", "result": "52.1 ±2.9", "unit": "ml/10"}, {"measurement": "Paw volume 8 h", "setting": "rat paw; 252 mg/kg p.o.", "result": "51.4 ±2.5", "unit": "ml/10"}, {"measurement": "Paw volume 24 h", "setting": "rat paw; 252 mg/kg p.o.", "result": "41 ±1.4", "unit": "ml/10"}, {"measurement": "AREA % M±E.S.", "setting": "rat paw; 252 mg/kg p.o.", "result": "165.21 ±13.1", "unit": "%"}, {"measurement": "Paw volume Basal", "setting": "rat paw; 252 mg/kg p.o.", "result": "36.8 ±1.0", "unit": "ml/10"}, {"measurement": "AREA Inhibition versus control", "setting": "rat paw; 252 mg/kg p.o.", "result": 20.26, "unit": "%"}]}]}
